From patent US4940726A, “Cell growth inhibitory macrocyclic lactones denominated Combretastatin D-1 and Combretastatin D-2” (Arizona Board of Regents, priority 1989, dated 1990) come the findings set out here.

The test system of this experiment is murine P388 lymphocytic leukemia (PS) cell line. Briefly: murine P388 lymphocytic leukemia (PS system) cell line growth inhibition, standard National Cancer Institute protocol. It is filed as cell-based.

≈ marks a conversion by molar mass, not a printed value.

On to `O=C1CCc2ccc(O)c(c2)Oc2ccc(cc2)[C@@H]2O[C@@H]2CO1` (relative stereo) [Combretastatin D-1], for which, for the setting “Mus musculus, P388, murine P388 lymphocytic leukemia (PS system) cell line, read-out: PS cell line activity ED50”, the IC50 was determined as 3.3 µg/mL (≈ 10.6 µM).

As to `O=C1CCc2ccc(O)c(c2)Oc2ccc(cc2)/C=C\CO1` [Combretastatin D-2], the “PS cell line activity ED50” value (murine P388 lymphocytic leukemia (PS system) cell line) turned out to be 5.2 µg/mL.
